CC[C@H]1OC(=O)[C@H](C)[C@@H](O[C@H]2C[C@@](C)(OC)[C@@H](O)[C@H](C)O2)[C@H](C)[C@@H](O[C@@H]2O[C@H](C)C[C@H](N(C)C)[C@H]2O)[C@](C)(O)C[C@@H](C)CN(C)[C@H](C)[C@@H](O)[C@]1(C)O.O
solubility (mole fraction) (in acetone, 278.15 K): 0.0305 | solubility (mole fraction) (in acetone, 283.15 K): 0.0329 | solubility (mole fraction) (in acetone, 288.15 K): 0.0353 | solubility (mole fraction) (in acetone, 293.15 K): 0.0386 | solubility (mole fraction) (in acetone, 298.15 K): 0.0424 | solubility (mole fraction) (in acetone, 303.15 K): 0.0464 | solubility (mole fraction) (in acetone, 308.15 K): 0.0512 | solubility (mole fraction) (in acetone, 313.15 K): 0.0569 | solubility (mole fraction) (in acetone, 318.15 K): 0.063 | solubility (mole fraction) (in acetone, 323.15 K): 0.0721 | solubility (mole fraction) (in ethanol, 278.15 K): 0.0299 | solubility (mole fraction) (in ethanol, 283.15 K): 0.0325 | solubility (mole fraction) (in ethanol, 288.15 K): 0.0348 | solubility (mole fraction) (in ethanol, 293.15 K): 0.0371 | solubility (mole fraction) (in ethanol, 298.15 K): 0.0406 | solubility (mole fraction) (in ethanol, 303.15 K): 0.0451 | solubility (mole fraction) (in ethanol, 308.15 K): 0.0491 | solubility (mole fraction) (in ethanol, 313.15 K): 0.0538 | solubility (mole fraction) (in ethanol, 318.15 K): 0.0573 | solubility (mole fraction) (in ethanol, 323.15 K): 0.0588 | solubility (mole fraction) (in ethyl acetate, 278.15 K): 0.0324 | solubility (mole fraction) (in ethyl acetate, 283.15 K): 0.0341 | solubility (mole fraction) (in ethyl acetate, 288.15 K): 0.0366 | solubility (mole fraction) (in ethyl acetate, 293.15 K): 0.0396 | solubility (mole fraction) (in ethyl acetate, 298.15 K): 0.0436 | solubility (mole fraction) (in ethyl acetate, 303.15 K): 0.0521 | solubility (mole fraction) (in ethyl acetate, 308.15 K): 0.0593 | solubility (mole fraction) (in ethyl acetate, 313.15 K): 0.0671 | solubility (mole fraction) (in ethyl acetate, 318.15 K): 0.0743 | solubility (mole fraction) (in ethyl acetate, 323.15 K): 0.081 | solubility (mole fraction) (in isopropanol, 278.15 K): 0.0281 | solubility (mole fraction) (in isopropanol, 283.15 K): 0.0303 | solubility (mole fraction) (in isopropanol, 288.15 K): 0.0327 | solubility (mole fraction) (in isopropanol, 293.15 K): 0.0349 | solubility (mole fraction) (in isopropanol, 298.15 K): 0.0388 | solubility (mole fraction) (in isopropanol, 303.15 K): 0.0433 | solubility (mole fraction) (in isopropanol, 308.15 K): 0.0459 | solubility (mole fraction) (in isopropanol, 313.15 K): 0.0507 | solubility (mole fraction) (in isopropanol, 318.15 K): 0.0542 | solubility (mole fraction) (in isopropanol, 323.15 K): 0.0575 | solubility (mole fraction) (in n-butanol, 278.15 K): 0.0249 | solubility (mole fraction) (in n-butanol, 283.15 K): 0.0254 | solubility (mole fraction) (in n-butanol, 288.15 K): 0.0274 | solubility (mole fraction) (in n-butanol, 293.15 K): 0.0282 | solubility (mole fraction) (in n-butanol, 298.15 K): 0.0301 | solubility (mole fraction) (in n-butanol, 303.15 K): 0.0324 | solubility (mole fraction) (in n-butanol, 308.15 K): 0.0356 | solubility (mole fraction) (in n-butanol, 313.15 K): 0.0386 | solubility (mole fraction) (in n-butanol, 318.15 K): 0.0422 | solubility (mole fraction) (in n-butanol, 323.15 K): 0.0466

— BigSolDB 2.1
